From patent US20060069132A1, “Azolecarboxamide herbicides” (priority 2004, published 2006)

What was measured:
ducksalad = assay: Test B flooded paddy test; format: in vivo, Heteranthera limosa; conditions: 1000 g ai/ha, scale 0 to 100 (0 no effect, 100 complete control)
Procedure, shortened: (§1)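 Postemergence plants were sprayed with formulated test chemicals at 2 to 18 cm height (1- to 4-leaf stage); paddy species were grown to the 2-leaf stage. After 13 to 15 days in a greenhouse, injury was rated visually against untreated controls on a 0–100 scale (0 = no effect, 100 = complete control).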

morningglory = assay: Test B pre-/postemergence herbicide test; format: in vivo, Ipomoea coccinea
Procedure, shortened: (§2)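 Seeds were planted and treated preemergence with compounds formulated in a non-phytotoxic solvent mixture containing surfactant, while plants at the 1- to 4-leaf stage (2 to 18 cm) received postemergence sprays. Flooded paddy plants were grown to the 2-leaf stage. After 13 to 15 days in a greenhouse, injury was visually rated 0–100 against untreated controls.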

cocklebur = assay: Test B pre-/postemergence herbicide test; format: in vivo, Xanthium strumarium
Procedure, shortened: as §2

lambsquarters = assay: Test B pre-/postemergence herbicide test; format: in vivo, Chenopodium album
Procedure, shortened: (§3)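 Response was scored visually 13 to 15 days after treatment against untreated greenhouse controls, 0 meaning no effect and 100 complete control. Formulations (solvent mixture plus surfactant) went onto soil after planting, onto foliage of 1- to 4-leaf plants, and onto 2-leaf plants in a flooded paddy set including rice and barnyardgrass.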

barnyardgrass [1] = assay: Test B pre-/postemergence herbicide test; format: in vivo, Echinochloa crus-galli
Procedure, shortened: as §2

corn = assay: Test B pre-/postemergence herbicide test; format: in vivo, Zea mays
Procedure, shortened: as §3

wild oat = assay: Test B postemergence herbicide test; format: in vivo, Avena fatua
Procedure, shortened: (§4)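 Scale 0–100: zero equals no visible effect, 100 complete control, judged by eye relative to controls. Timing: 13 to 15 days in greenhouse post-treatment. Growth stage at spraying: two leaves (paddy) or one to four leaves, 2–18 cm (postemergence).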

large crabgrass = assay: Test B pre-/postemergence herbicide test; format: in vivo, Digitaria sanguinalis
Procedure, shortened: as §3

barnyardgrass [2] = assay: Test B flooded paddy test; format: in vivo, Echinochloa crus-galli; conditions: 1000 g ai/ha, scale 0 to 100 (0 no effect, 100 complete control)
Procedure, shortened: as §1

wheat = assay: Test B postemergence herbicide test; format: in vivo, Triticum aestivum; design: key to Wheat plant response rating: 0 = no effect, 100 = complete control
Procedure, shortened: as §4

rice = assay: Test B flooded paddy test; format: in vivo, Oryza sativa; conditions: 1000 g ai/ha, scale 0 to 100 (0 no effect, 100 complete control)
Procedure, shortened: as §1

pigweed = assay: Test B pre-/postemergence herbicide test; format: in vivo, Amaranthus retroflexus
Procedure, shortened: as §3

giant foxtail = assay: Test B pre-/postemergence herbicide test; format: in vivo, Setaria faberi
Procedure, shortened: as §3

Surinam grass = assay: Test B pre-/postemergence herbicide test; format: in vivo, Urochloa decumbens
Procedure, shortened: as §3

[3] = tested on: small flower umbrella sedge; assay: Test B flooded paddy test; format: in vivo, Cyperus difformis; conditions: 1000 g ai/ha, scale 0 to 100 (0 no effect, 100 complete control)
Procedure, shortened: as §1

velvetleaf = assay: Test B pre-/postemergence herbicide test; format: in vivo, Abutilon theophrasti
Procedure, shortened: as §3

blackgrass = assay: Test B postemergence herbicide test; format: in vivo, Alopecurus myosuroides
Procedure, shortened: as §1

[4] = 500 g ai/ha, visual rating 0-100, 0 no effect, 100 complete control, preemergence
[5] = Postemergence, 500 g ai/ha, visual rating after 13 to 15 days, scale 0 (no effect) to 100 (complete control)
[6] = postemergence, 125 g ai/ha, visual rating, scale 0 (no effect) to 100 (complete control)
[7] = preemergence, 125 g ai/ha, 0 to 100 scale, 0 is no effect, 100 is complete control
[8] = Postemergence, 250 g ai/ha, scale 0 (no effect) to 100 (complete control)
[9] = postemergence, 62 g ai/ha, scale 0 to 100
[10] = 125 g ai/ha, 0 is no effect, 100 is complete control, preemergence
[11] = 125 g ai/ha, visual rating, scale 0 (no effect) to 100 (complete control), postemergence
[12] = 500 g ai/ha, visual rating, 0 = no effect, 100 = complete control, preemergence
[13] = postemergence, 500 g ai/ha, scale 0 to 100, 0 is no effect, 100 is complete control

CCON=C(C)c1cccc(NC(=O)c2cc(C(C)(C)C)nn2C)c1 [Compound 105]
Ducksalad plant response rating (ducksalad; visual rating, 13 to 15 days): 70
Plant response rating, Morningglory (morningglory; [4]): 10
Plant response rating, Morningglory (morningglory; [5]): 10
Morningglory plant response rating (morningglory; [6]): 0
Plant response rating, Morningglory (morningglory; [7]): 0
Plant response rating, Cocklebur (cocklebur; [4]): 0
Plant response rating, Cocklebur (cocklebur; [5]): 30
Cocklebur plant response rating (cocklebur; [6]): 30
Plant response rating, Cocklebur (cocklebur; [7]): 0
Plant response rating, Lambsquarters (lambsquarters; [4]): 80
Plant response rating, Lambsquarters (lambsquarters; [5]): 80
Lambsquarters plant response rating (lambsquarters; [6]): 50
Plant response rating, Lambsquarters (lambsquarters; [7]): 0
Plant response rating, Barnyardgrass (barnyardgrass [1]; [4]): 30
Plant response rating, Barnyardgrass (barnyardgrass [1]; [5]): 0
Barnyardgrass plant response rating (barnyardgrass [1]; [6]): 0
Plant response rating, Barnyardgrass (barnyardgrass [1]; [7]): 0
Plant response rating, Corn (corn; [4]): 0
Plant response rating, Corn (corn; [5]): 0
Corn plant response rating (corn; [6]): 0
Plant response rating, Corn (corn; [7]): 0
Plant response rating, Oat, Wild (wild oat; [5]): 10
Oat, Wild plant response rating (wild oat; [6]): 0
Plant response rating, Crabgrass, Large (large crabgrass; [4]): 90
Plant response rating, Crabgrass, Large (large crabgrass; [5]): 0
Crabgrass, Large plant response rating (large crabgrass; [6]): 0
Plant response rating, Crabgrass, Large (large crabgrass; [7]): 0
Barnyardgrass plant response rating (barnyardgrass [2]; visual rating, 13 to 15 days): 20
Plant response rating, Wheat (wheat; [5]): 0
Wheat plant response rating (wheat; [6]): 0
Rice plant response rating (rice; visual rating, 13 to 15 days): 0
Plant response rating, Pigweed (pigweed; [4]): 80
Plant response rating, Pigweed (pigweed; [5]): 80
Pigweed plant response rating (pigweed; [6]): 0
Plant response rating, Pigweed (pigweed; [7]): 0
Plant response rating, Foxtail, Giant (giant foxtail; [4]): 10
Plant response rating, Foxtail, Giant (giant foxtail; [5]): 0
Foxtail, Giant plant response rating (giant foxtail; [6]): 0
Plant response rating, Foxtail, Giant (giant foxtail; [7]): 0
Plant response rating, Surinam Grass (Surinam grass; [4]): 10
Plant response rating, Surinam Grass (Surinam grass; [5]): 10
Surinam Grass plant response rating (Surinam grass; [6]): 0
Plant response rating, Surinam Grass (Surinam grass; [7]): 0
Sedge, Umbrella plant response rating ([3]; visual rating, 13 to 15 days): 70
Plant response rating, Velvetleaf (velvetleaf; [4]): 0
Plant response rating, Velvetleaf (velvetleaf; [5]): 0
Velvetleaf plant response rating (velvetleaf; [6]): 0
Plant response rating, Velvetleaf (velvetleaf; [7]): 0
Plant response rating, Blackgrass (blackgrass; [5]): 0
Blackgrass plant response rating (blackgrass; [6]): 0

CCN(CC)C(=O)c1cccc(NC(=O)c2cn(C(C)(C)C)nc2C(F)(F)F)c1 [Compound 191]
Ducksalad plant response rating (ducksalad; visual rating, 13 to 15 days): 20
Morningglory plant response rating (morningglory; [8]): 90
Morningglory plant response rating (morningglory; [9]): 40
Cocklebur plant response rating (cocklebur; [8]): 10
Cocklebur plant response rating (cocklebur; [9]): 0
Lambsquarters plant response rating (lambsquarters; [8]): 80
Lambsquarters plant response rating (lambsquarters; [9]): 60
Barnyardgrass plant response rating (barnyardgrass [1]; [8]): 10
Barnyardgrass plant response rating (barnyardgrass [1]; [9]): 0
Corn plant response rating (corn; [8]): 10
Corn plant response rating (corn; [9]): 10
Oat, Wild plant response rating (wild oat; [8]): 20
Oat, Wild plant response rating (wild oat; [9]): 10
Crabgrass, Large plant response rating (large crabgrass; [8]): 20
Crabgrass, Large plant response rating (large crabgrass; [9]): 20
Barnyardgrass plant response rating (barnyardgrass [2]; visual rating, 13 to 15 days): 20
Wheat plant response rating (wheat; 250 g ai/ha, scale 0 to 100, 0 no effect, 100 complete control, preemergence): 0
Wheat plant response rating (wheat; [8]): 0
Wheat plant response rating (wheat; [9]): 0
Rice plant response rating (rice; visual rating, 13 to 15 days): 0
Pigweed plant response rating (pigweed; [8]): 70
Pigweed plant response rating (pigweed; [9]): 30
Foxtail, Giant plant response rating (giant foxtail; [8]): 20
Foxtail, Giant plant response rating (giant foxtail; [9]): 10
Surinam Grass plant response rating (Surinam grass; [8]): 10
Surinam Grass plant response rating (Surinam grass; [9]): 10
Sedge, Umbrella plant response rating ([3]; visual rating, 13 to 15 days): 90
Velvetleaf plant response rating (velvetleaf; [8]): 20
Velvetleaf plant response rating (velvetleaf; [9]): 10
Blackgrass plant response rating (blackgrass; [8]): 10
Blackgrass plant response rating (blackgrass; [9]): 0

CCNC(=O)c1ccc(F)c(NC(=O)c2cn(C(C)(C)C)nc2C)c1 [Compound 345]
Ducksalad plant response rating (ducksalad): 70
Plant response rating (0 to 100 scale), Morningglory (morningglory; [10]): 20
Morningglory plant response rating (morningglory; [11]): 10
Plant response rating, Morningglory (morningglory; [12]): 50
Morningglory plant response rating (morningglory; [13]): 10
Plant response rating (0 to 100 scale), Cocklebur (cocklebur; [10]): 0
Cocklebur plant response rating (cocklebur; [11]): 0
Plant response rating, Cocklebur (cocklebur; [12]): 10
Cocklebur plant response rating (cocklebur; [13]): 0
Plant response rating (0 to 100 scale), Lambsquarters (lambsquarters; [10]): 70
Lambsquarters plant response rating (lambsquarters; [11]): 20
Plant response rating, Lambsquarters (lambsquarters; [12]): 100
Lambsquarters plant response rating (lambsquarters; [13]): 20
Plant response rating (0 to 100 scale), Barnyardgrass (barnyardgrass [1]; [10]): 20
Barnyardgrass plant response rating (barnyardgrass [1]; [11]): 0
Plant response rating, Barnyardgrass (barnyardgrass [1]; [12]): 30
Barnyardgrass plant response rating (barnyardgrass [1]; [13]): 0
Plant response rating (0 to 100 scale), Corn (corn; [10]): 0
Corn plant response rating (corn; [11]): 0
Plant response rating, Corn (corn; [12]): 10
Corn plant response rating (corn; [13]): 0
Oat, Wild plant response rating (wild oat; [11]): 0
Oat, Wild plant response rating (wild oat; [13]): 10
Plant response rating (0 to 100 scale), Crabgrass, Large (large crabgrass; [10]): 30
Crabgrass, Large plant response rating (large crabgrass; [11]): 0
Plant response rating, Crabgrass, Large (large crabgrass; [12]): 90
Crabgrass, Large plant response rating (large crabgrass; [13]): 0
Barnyardgrass plant response rating (barnyardgrass [2]): 30
Wheat plant response rating (wheat; [11]): 0
Wheat plant response rating (wheat; [13]): 0
Rice plant response rating (rice): 40
Plant response rating (0 to 100 scale), Pigweed (pigweed; [10]): 60
Pigweed plant response rating (pigweed; [11]): 20
Plant response rating, Pigweed (pigweed; [12]): 100
Pigweed plant response rating (pigweed; [13]): 20
Plant response rating (0 to 100 scale), Foxtail, Giant (giant foxtail; [10]): 10
Foxtail, Giant plant response rating (giant foxtail; [11]): 0
Plant response rating, Foxtail, Giant (giant foxtail; [12]): 30
Foxtail, Giant plant response rating (giant foxtail; [13]): 0
Plant response rating (0 to 100 scale), Surinam Grass (Surinam grass; [10]): 20
Surinam Grass plant response rating (Surinam grass; [11]): 0
Plant response rating, Surinam Grass (Surinam grass; [12]): 70
Surinam Grass plant response rating (Surinam grass; [13]): 0
Sedge, Umbrella plant response rating [3]: 80
Plant response rating (0 to 100 scale), Velvetleaf (velvetleaf; [10]): 30
Velvetleaf plant response rating (velvetleaf; [11]): 10
Velvetleaf plant response rating (velvetleaf; [13]): 10
Blackgrass plant response rating (blackgrass; [11]): 0
Blackgrass plant response rating (blackgrass; [13]): 0
